pIC50: −log10 of the molar value.

The pIC50 is −log10 of the IC50, conventionally taken in molar units.

This series is described as follows: Inhibition of human ABCB1 expressed in mouse L5178Y cells assessed as reduction in cell growth after 24 hrs by MTT assay. Background: Tetrazolium assays rely on reduction of a dye to a coloured formazan, in cell work by metabolically active cells.
With `CC[C@@H]1CN(C)[C@H]2Cc3c([nH]c4ccccc34)/C(=N/Nc3ccccc3)C[C@H]1[C@@H]2C(=O)OC`, the negative-log IC50 (pIC50) is 4.77.

As for `CC[C@H]1CN(C)[C@H]2Cc3c([nH]c4ccccc34)/C(=N/Nc3cnccn3)C[C@H]1[C@@H]2C(=O)OC`, the negative logarithm of the IC50 (pIC50) was 4.07.

As to `CC[C@H]1CN(C)[C@H]2Cc3c([nH]c4ccccc34)C(=O)C[C@H]1[C@@H]2C(=O)OC`, the negative logarithm of the IC50 (pIC50) is less than 4.00.

Regarding `CC[C@@H]1CN(C)[C@H]2Cc3c([nH]c4ccccc34)C(=O)C[C@H]1[C@@H]2C(=O)OC`, the pIC50 was less than 4.00.

Turning to `CC[C@@H]1CN(C)[C@H]2Cc3c([nH]c4ccccc34)/C(=N/Nc3cnccn3)C[C@H]1[C@@H]2C(=O)OC`, the pIC50 was less than 4.00.

Consider `CC[C@@H]1CN(C)[C@H]2Cc3c([nH]c4ccccc34)/C(=N/NC(N)=O)C[C@H]1[C@@H]2C(=O)OC`, for which the pIC50 was less than 4.00.

For `CC[C@H]1CN(C)[C@H]2Cc3c([nH]c4ccccc34)/C(=N/NC(=O)OCc3ccc(OC)cc3)C[C@H]1[C@@H]2C(=O)OC`, the pIC50 is 4.28.

In the case of `CC[C@H]1CN(C)[C@H]2Cc3c([nH]c4ccccc34)/C(=N/NC(=S)NCc3cccnc3)C[C@H]1[C@@H]2C(=O)OC`, the pIC50 is 4.34.

On to `CC[C@H]1CN(C)[C@H]2Cc3c([nH]c4ccccc34)C(=S)C[C@H]1[C@@H]2C(=O)OC`, for which the pIC50 was 4.11.

On to `CC[C@H]1CN(C)[C@H]2Cc3c([nH]c4ccccc34)[C@@H](O)C[C@H]1[C@@H]2C(=O)OC`, for which the pIC50 was less than 4.00.

Consider `CC[C@@H]1CN(C)[C@H]2Cc3c([nH]c4ccccc34)[C@@H](O)C[C@H]1[C@@H]2C(=O)OC`, for which the negative logarithm of the IC50 (pIC50) was 4.08.

Consider `C/C=C/C(=O)O[C@H]1C[C@@H]2[C@@H](CC)CN(C)[C@@H](Cc3c1[nH]c1ccccc31)[C@H]2C(=O)OC`, for which the negative logarithm of the IC50 (pIC50) is less than 4.00.

Take `CC[C@@H]1CN(C)[C@H]2Cc3c([nH]c4ccccc34)[C@@H](OC(=O)C34CC5CC(CC(C5)C3)C4)C[C@H]1[C@@H]2C(=O)OC`: the pIC50 was less than 4.00.

For the molecule `CC[C@H]1CN(C)[C@H]2Cc3c(n(C)c4ccccc34)C(=O)C[C@H]1[C@@H]2C(=O)OC`, the pIC50 is 4.05.

For `CC[C@H]1CN(C)[C@H]2Cc3c(n(Cc4ccccc4)c4ccccc34)C(=O)C[C@H]1[C@@H]2C(=O)OC`, the pIC50 was 4.42.

On to `CC[C@H]1CN(C)[C@H]2Cc3c(n(CCN(CC)CC)c4ccccc34)C(=O)C[C@H]1[C@@H]2C(=O)OC`, for which the pIC50 is less than 4.00.

Take `CC[C@H]1CN(C)[C@H]2Cc3c(n(C(=O)c4cccc(C)c4)c4ccccc34)C(=O)C[C@H]1[C@@H]2C(=O)OC`: the negative-log IC50 (pIC50) was less than 4.00.

Turning to `CC[C@H]1CN(C)[C@H]2Cc3c([nH]c4ccccc34)/C(=N/Nc3ccc(Br)cn3)C[C@H]1[C@@H]2C(=O)OC`, the negative-log IC50 (pIC50) is 4.40.

For `CC[C@@H]1CN(C)[C@H]2Cc3c([nH]c4ccccc34)/C(=N/Nc3ccc(Br)cn3)C[C@H]1[C@@H]2C(=O)OC`, the pIC50 is 4.42.

In the case of `CC[C@H]1CN(C)[C@H]2Cc3c([nH]c4ccccc34)/C(=N/O)C[C@H]1[C@@H]2C(=O)OC`, the pIC50 was 4.78.

In the case of `CC[C@@H]1CN(C)[C@H]2Cc3c([nH]c4ccccc34)/C(=N/O)C[C@H]1[C@@H]2C(=O)OC`, the pIC50 is 4.07.

On to `CC[C@H]1CN(C)[C@H]2Cc3c([nH]c4ccccc34)/C(=N/NC(N)=O)C[C@H]1[C@@H]2C(=O)OC`, for which the negative-log IC50 (pIC50) is less than 4.00.

For the molecule `CC[C@H]1CN(C)[C@H]2Cc3c([nH]c4ccccc34)/C(=N/Nc3ccccc3)C[C@H]1[C@@H]2C(=O)OC`, the pIC50 is 4.28.

The values above are taken from BindingDB's records for doi:10.1016/j.ejmech.2017.01.044 (Universidade De Lisboa, 2017).
